Test results as given in patent publication US7339023B2, “Partial peptide mimetics and methods” (Regents of the University of Minnesota, priority 2002, dated 2008).

Legend:
[1] = tested on: bFGF-stimulated human umbilical vascular EC (HUVEC); test: EC proliferation measurement, [3H]-thymidine incorporation assay; format: cell-based; settings: for IC50: bFGF-stimulated (10 ng/ml) HUVEC, 3H-thymidine incorporation, 3 days; for EC Proliferation % Inhibition at 25 μM: bFGF-stimulated HUVEC
Procedure: Human umbilical vein derived EC (HUVEC) were harvested from normal human umbilical cords by perfusion with 0.125% trypsin/EDTA. Harvested HUVECs were cultured in gelatin coated tissue culture flasks and subcultured 1:3 once a week in culture medium (RPMI-1640 with 20% human serum (HS), supplemented with 2 mM glutamine and 100 U/ml penicillin and 0.1 mg/ml streptomycin). Bovine capillary EC (BCE) were kindly provided by Dr. M. Furie (State University of New York, Stony Brook, USA) and were cultured in fibronectin coated tissue culture flasks in RPMI-1640 medium containing 10% FCS, glutamine and antibiotics.
EC proliferation was measured using a [^3H]-thymidine incorporation assay. Proliferation of bFGF-stimulated (10 nanogram per milliliter (ng/ml)) human umbilical vascular EC (HUVEC) cultures was measured by quantification of ^3H-thymidine incorporation. Proliferation is expressed as mean counts per minute (cpm) of quadruplicate cultures in three independent experiments (±SEM). EC were seeded at 5000 cells/well in flat-bottomed tissue culture plates and grown for 3 days in the absence or presence of regulators, in culture medium. During the last 6 hours of the assay, the culture was pulsed with 0.5 μCi [methyl-^3H]-thymidine/well. Human umbilical vein derived EC (HUVEC) were harvested from normal human umbilical cords by perfusion with 0.125% trypsin/EDTA. Harvested HUVECs were cultured in gelatin coated tissue culture flasks and subcultured 1:3 once a week in culture medium (RPMI-1640 with 20% human serum (HS), supplemented with 2 mM glutamine and 100 U/ml penicillin and 0.1 mg/ml streptomycin).

bovine EC (BCE) = test: In vitro angiogenesis assay, collagen gel-based sprout formation; format: cell-based; design: key to % Sprouting: —: No effect on the assay; settings: for % Sprouting: BCE on cytodex-3 beads in collagen gel, 20 ng/mL bFGF, 24 hours, * = significant inhibition (p < 0.03); for Sprouting in collagen gel-based sprout formation assay: versus control showing numerous sprouts, data not shown
Procedure: Sprouting and tube formation of bovine EC (BCE) were studied using cytodex-3 beads overgrown with BCE in a 3-dimensional collagen gel (vitrogen-100, Collagen Corp., Fremont, Calif., USA) as described in D. Van der Schaft et al., Blood, 96,176-181 (2000). Following gelation, culture medium containing 20 ng/mL bFGF, with or without […] or DBF analogs, was applied on top of the gel. After 24 hours of cell culture at 37° C., photographs were made (not shown). The amount of sprouting in each well (i.e., the total length of the sprouts) was quantified by the computer program NIH image. To quantify differences in sprouting and tube formation, statistical analysis was performed using the Mann-Whitney U test.

[2] = tested on: MA148 human ovarian carcinoma tumors; test: Immunohistochemistry of tumor sections (CD31 microvessel density, PCNA proliferation, TUNEL apoptosis); format: in vivo, mice; settings: for Vessel density relative to control: anti-CD31 staining of tumor cross-sections; for End Points (mean number of vessel end points) / Branch Points (mean number of vessel branch points/nodes per image) / Proliferation (PCNA-staining, white pixels per field) / Vessel Density (CD31-staining, white pixels per field) / Vessel Length (mean total vessel length per image): tumors of treated mice, ± standard error; for End Points (mean number of vessel end points): after skeletonization
Procedure: Immunohistochemistry was used to assess microvessel density and the extent of total cell apoptosis. Tumor tissue was embedded in tissue freezing medium (Miles Inc, Elkart, Ind.) and shock frozen in liquid nitrogen. […] sections of tissue were prepared for immunohistochemical analysis. For this, tissue sections were brought to room temperature, air dried overnight, and then fixed in acetone for 10 minutes. Slides were allowed to air dry for at least 30 minutes and were washed three times for 5 minutes each in phosphate-buffered saline (PBS, pH 7.4). Samples were then blocked with PBS containing 0.1% bovine serum albumin and 3% human serum albumin for at least 30 minutes at room temperature in a humidified box. Samples were subsequently incubated with phycoerytrin (PE)-conjugated monoclonal antibody to CD31 (PECAM-1) in a 1:50 dilution (Pharmigen, San Diego, Calif.) to stain for microvessel density. After 1-hour incubation at room temperature, slides were washed with PBS and immediately imaged using an Olympus BX-60 fluorescence microscope at 200× magnification.
To assess the extent of total cell apoptosis, tissue sections were stained by using the TUNEL (terminal deoxyribonucleotidyl transferase-mediated dUTP-nick-end labeling) assay, which was performed according to the manufacturer's instructions (in situ cell death detection kit, fluorescein; TUNEL, Roche). Digital images were stored and processed using Adobe Photoshop (Adobe Inc., Mountain View Calif.).
Quantification of microvessel density, the rate of proliferation and total cell apoptosis were determined as described earlier (R. Wild et al., Microvasc. Res., 59, 368-376 (2000)). Statistical analysis was performed using the Student's t test.

[3] = tested on: MA148 human ovarian carcinoma; test: MA148 xenograft ovarian carcinoma tumor model in athymic mice, tumor volume; settings: for Inhibition of tumor growth ten days post-treatment: at sacrifice
Procedure: In all studies, female athymic nude mice (nu/nu, 5-6 weeks old) were used. These mice were purchased from the National Cancer Institute and allowed to acclimatize to local conditions for at least one week. Animals were given water and standard chow ad libitum, and were kept on a 12-hour light/dark cycle. […] Compounds were diluted in 100 mM SDS and administered using osmotic mini-pumps (Durect, Cupertino, Calif.). Exponentially growing MA148 human ovarian carcinoma cells, kindly provided by Prof. Ramakrishnan (R. P. Dings et al., Cancer Res., 63, 382-385 (2003)) were cultured in RPMI 1640 medium (Life Technologies, Grand Island, N.Y.). This medium was supplemented with 10% fetal bovine serum and 1% penicillin/streptomycin (Cellgro, Mediatech, Washington, D.C.) at 37° C. and 5% CO2. One hundred microliters (100 μL) of this tumor cell suspension (2×10^7 cells/ml) was then injected subcutaneously into the right flank of each mouse. Pumps were implanted into the left flank of mice for subcutaneous administration of compound over a 28-day treatment span.
Two variants of this model were used: prevention and intervention. For the prevention variant, treatment was initiated at the time of inoculation with MA148 cells. For the intervention variant, tumors were allowed to grow to an average size of 50 mm^3 (usually day 7 post inoculation) before treatment was initiated. With either variant, animals were randomized prior to the initiation of treatment. Treatment was administered via osmotic mini-pumps (Durect, Cupertino, Calif.), which were implanted subcutaneously in the left flank of mice. […] In each study, control groups of animals were administered either PBS or PBS containing human serum albumin.
Tumor volume was determined by measuring the diameters of tumors using calipers (Scienceware, Pequannock, N.J.) using the equation for the volume of a spheroid: (a^2×b×π)/6, where ‘a’ is the width and ‘b’ the length of the tumor. Measurements were performed two or three times per week. At the conclusion of an experiment, tumor weights were also taken following excision of the tumors from euthanized animals.

Substance: ANIKLSVQMKL-[DBF]-I [11DBF1]
- IC50 [1]: 23 ± 5 µM

Substance: ANIKLSVQMKL-[DBF]-IIVK [11DBF4]
- IC50 [1]: 35 µM

Substance: ANIKLSVQMKL-[DBF]-IIVKLN [11DBF6]
- IC50 [1]: 22 µM

Substance: ANIKLSVQMKL-[DBF]-IIVKLND [11DBF7]
- EC Proliferation % Inhibition at 25 μM [1]: 92%
- IC50 [1]: 12 µM
- % Sprouting (bovine EC (BCE)): 23 ± 10%*
- Sprouting in collagen gel-based sprout formation assay (bovine EC (BCE)): highly reduced sprouting
- Vessel density relative to control [2]: significantly reduced
- End Points (mean number of vessel end points) [2]: 21.2 ± 3.3 mean pixel counts per image
- Branch Points (mean number of vessel branch points/nodes per image) [2]: 3.1 ± 0.9 mean pixel counts per image
- Proliferation (PCNA-staining, white pixels per field) [2]: 553 ± 75 mean pixel counts per image
- Vessel Density (CD31-staining, white pixels per field) [2]: 2879 ± 385 mean pixel counts per image
- Vessel Length (mean total vessel length per image) [2]: 3.0 ± 0.6 mean pixel counts per image
- Inhibition of tumor growth at the end of the four-week administration period (day 35) ([3]; intervention, day 35): about 50%
- Inhibition of tumor growth ten days post-treatment ([3]; intervention): about 50%
- Reduction of tumor volume relative to control animals ([3]; prevention model: treatment from time of inoculation, subcutaneous mini-pumps, 10 mg/kg/day): up to 90%

Substance: IKLSVQMKL-[DBF]-IIVKLND [9DBF7]
- EC Proliferation % Inhibition at 25 μM [1]: 57%
- IC50 [1]: 20 µM
- % Sprouting (bovine EC (BCE)): 76 ± 40%*

Substance: L-[DBF]-IIVKLND [1DBF7]
- EC Proliferation % Inhibition at 25 μM [1]: 0%
- IC50 [1]: > 25 µM
- % Sprouting (bovine EC (BCE)): —

Substance: MKL-[DBF]-IIVKLND [3DBF7]
- EC Proliferation % Inhibition at 25 μM [1]: 0%
- IC50 [1]: > 25 µM
- % Sprouting (bovine EC (BCE)): 84 ± 30%

Substance: NIKLSVQMKL-[DBF]-IIVKLND [10DBF7]
- EC Proliferation % Inhibition at 25 μM [1]: 69%
- IC50 [1]: 12 µM
- % Sprouting (bovine EC (BCE)): 57 ± 17.5%*

Substance: QMKL-[DBF]-IIVKLND [4DBF7]
- EC Proliferation % Inhibition at 25 μM [1]: 46%
- IC50 [1]: 25 µM
- % Sprouting (bovine EC (BCE)): 99 ± 5%

Substance: SVQMKL-[DBF]-I [6DBF1]
- IC50 [1]: 76.1 ± 10.9 µM

Substance: SVQMKL-[DBF]-II [6DBF2]
- IC50 [1]: > 25 µM

Substance: SVQMKL-[DBF]-IIV [6DBF3]
- IC50 [1]: > 25 µM

Substance: SVQMKL-[DBF]-IIVK [6DBF4]
- IC50 [1]: > 25 µM

Substance: SVQMKL-[DBF]-IIVKLN [6DBF6]
- IC50 [1]: 42 µM

Substance: SVQMKL-[DBF]-IIVKLND [6DBF7]
- EC Proliferation % Inhibition at 25 μM [1]: 68%
- IC50 [1]: 15 µM
- Effect on tube formation (bovine EC (BCE)): significant inhibitory effect on tube formation
- % Sprouting (bovine EC (BCE)): 60 ± 12%*
- Sprouting in collagen gel-based sprout formation assay (bovine EC (BCE)): highly reduced sprouting
- Number of apoptotic tumor cells ([2]; TUNEL, control 311±103): 851±162
- Vessel density relative to control [2]: significantly reduced
- End Points (mean number of vessel end points) [2]: 21.7 ± 2.6 mean pixel counts per image
- Branch Points (mean number of vessel branch points/nodes per image) [2]: 2.3 ± 1.1 mean pixel counts per image
- Proliferation (PCNA-staining, white pixels per field) [2]: 501 ± 68 mean pixel counts per image
- Vessel Density (CD31-staining, white pixels per field) [2]: 2213 ± 256 mean pixel counts per image
- Vessel Length (mean total vessel length per image) [2]: 2.5 ± 0.4 mean pixel counts per image
- Inhibition of tumor growth ten days post-treatment ([3]; intervention): about 50%
